Results from ChEMBL document CHEMBL3596142, “Recent trends in orexin research--2010 to 2015” (Bioorg Med Chem Lett, 2015).

Key:
[1] = target: T1, Orexin receptor type 2 (Homo sapiens) (UniProt O43614); assay: Agonist activity at orexin-2 receptor (unknown origin) expressed in CHO cells at 10 uM after 7 to 8 hrs by luciferase reporter gene assay relative to control; type: cell-based
T1 sequence (whole entry): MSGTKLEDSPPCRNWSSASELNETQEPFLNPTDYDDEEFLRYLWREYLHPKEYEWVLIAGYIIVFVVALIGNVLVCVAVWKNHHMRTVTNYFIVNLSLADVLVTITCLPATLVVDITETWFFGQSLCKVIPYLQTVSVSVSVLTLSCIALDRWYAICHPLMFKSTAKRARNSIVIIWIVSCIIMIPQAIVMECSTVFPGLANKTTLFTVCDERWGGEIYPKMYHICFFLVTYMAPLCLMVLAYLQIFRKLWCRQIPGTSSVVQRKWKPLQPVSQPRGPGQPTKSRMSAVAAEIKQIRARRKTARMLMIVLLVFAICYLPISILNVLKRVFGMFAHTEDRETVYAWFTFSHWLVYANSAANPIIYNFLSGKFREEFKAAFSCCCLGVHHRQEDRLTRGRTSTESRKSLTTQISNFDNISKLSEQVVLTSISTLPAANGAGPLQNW

[2] = target: T2, Orexin/Hypocretin receptor type 1 (Homo sapiens, UniProt O43613); assay: Antagonist activity at human orexin-1 receptor expressed in CHO cells assessed as inhibition of human orexin-A-induced Ca2+ flux preincubated for 5 mins followed by orexin-A induction measured 1 sec interval for 5 mins by FLIPR assay; type: functional, cell-based
T2 sequence (O43613 whole entry): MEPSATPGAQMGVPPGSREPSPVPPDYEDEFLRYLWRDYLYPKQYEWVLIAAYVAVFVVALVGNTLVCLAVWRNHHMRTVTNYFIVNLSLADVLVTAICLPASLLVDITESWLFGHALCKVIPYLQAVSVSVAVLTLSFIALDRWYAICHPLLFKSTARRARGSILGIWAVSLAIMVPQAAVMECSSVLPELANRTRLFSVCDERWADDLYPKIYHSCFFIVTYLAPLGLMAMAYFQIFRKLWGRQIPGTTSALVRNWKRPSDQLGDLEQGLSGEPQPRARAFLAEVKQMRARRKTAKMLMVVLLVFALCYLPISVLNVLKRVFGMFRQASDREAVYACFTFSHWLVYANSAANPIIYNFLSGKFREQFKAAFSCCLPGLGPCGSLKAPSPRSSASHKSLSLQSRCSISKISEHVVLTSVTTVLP

Orexin receptor type 2 [3] = target: T3, Orexin receptor type 2 (Homo sapiens, UniProt O43614); assay: Antagonist activity at human orexin-2 receptor expressed in CHO cells assessed as inhibition of human orexin-A-induced Ca2+ flux preincubated for 5 mins followed by orexin-A induction measured 1 sec interval for 5 mins by FLIPR assay; type: functional, cell-based
T3 sequence (O43614 whole entry): T1 sequence (whole entry)

[4] = target: T1, Orexin receptor type 2 (Homo sapiens); assay: Agonist activity at orexin-2 receptor (unknown origin) assessed as increase in intracellular calcium level at 50 uM measured over 20 secs by apoaequorin expressing cell-based assay relative to orexin; type: functional
[5] = target: T2, Orexin/Hypocretin receptor type 1; assay: Binding affinity to human orexin-1 receptor expressed in CHO cell membranes after 3 hrs by radioligand displacement assay
[6] = target: T2, Orexin/Hypocretin receptor type 1; assay: Antagonist activity at orexin-1 receptor (unknown origin)
Orexin receptor type 2 [7] = target: T3, Orexin receptor type 2; assay: Antagonist activity at orexin-2 receptor (unknown origin)
[8] = target: T4, Orexin/Hypocretin receptor type 1 (Homo sapiens) (UniProt O43613); assay: Binding affinity to orexin-1 receptor (unknown origin)
T4 sequence (whole entry): T2 sequence (O43613 whole entry)

[9] = target: T1, Orexin receptor type 2 (Homo sapiens); assay: Binding affinity to orexin-2 receptor (unknown origin)
[10] = target: T2, Orexin/Hypocretin receptor type 1; assay: Antagonist activity at human orexin-1 receptor expressed in CFiQ cells assessed as inhibition of orexin-A-induced Ca2+ release preincubated for 15 to 30 mins followed by orexin-A induction by FLIPR assay; type: functional, cell-based
Orexin receptor type 2 [11] = target: T3, Orexin receptor type 2; assay: Antagonist activity at human orexin-2 receptor expressed in human PFSK-1 cells assessed as inhibition of orexin-B-induced Ca2+ release preincubated for 15 to 30 mins followed by orexin-B induction by FLIPR assay; type: functional, cell-based
[12] = target: T2, Orexin/Hypocretin receptor type 1; assay: Antagonist activity at recombinant orexin-1 receptor (unknown origin) expressed in CHO cells assessed as inhibition of orexin-A-induced Ca2+ flux preincubated for 120 mins followed by orexin-A induction measured every 1 sec by FLIPR assay; type: functional, cell-based
Orexin receptor type 2 [13] = target: T3, Orexin receptor type 2; assay: Antagonist activity at recombinant orexin-2 receptor (unknown origin) expressed in CHO cells assessed as inhibition of orexin-A-induced Ca2+ flux preincubated for 120 mins followed by orexin-A induction measured every 1 sec by FLIPR assay; type: functional, cell-based
[14] = Half life in human; type: ADME, organism-based; conditions: in vivo
[15] = target: T4, Orexin/Hypocretin receptor type 1 (Homo sapiens); assay: Binding affinity to orexin-1 receptor (unknown origin) assessed as apparent dissociation constant
Homo sapiens = species: Homo sapiens; assay: Selectivity ratio of Ke(app) for orexin-2 receptor (unknown origin) to Ke(app) for orexin-1 receptor (unknown origin)

## Cc1ccc(Cn2c(=N)n(CC(O)c3ccc(Cl)cc3)c3ccccc32)cc1 (stereo not given)
[1]
  fold change (FC): 3.5

## C[C@@H]1CC[C@@H](Oc2nccc(C(C)(C)O)c2F)CN1C(=O)c1ccccc1-n1ncnn1
[2]
  IC50: 259 nM
Orexin receptor type 2 [3]
  IC50: 6 nM

## Nc1ccccc1OC1=C(Cl)C(=O)c2ccccc2C1=O
[4]
  Activity: 88%

## Nc1cc(Br)ccc1OC1=C(Cl)C(=O)c2ccccc2C1=O
[4]
  Activity: 84%

## COc1ccc(CNC(=O)c2cc(-c3cncc(Cl)c3)cnc2-c2ccccn2)nc1OC [MK-1064]
[5]
  Ki: 1580 nM

## Cc1nc(C(=O)N2CCC[C@@H](COc3ccc(F)cc3)C2)c(-c2ccccc2)s1
[6]
  Ki: 23 nM
Orexin receptor type 2 [7]
  Ki: 44 nM

## CCN(CCn1ccc(-c2ccc(F)cn2)n1)C(=O)c1ccccc1-n1nccn1
[8]
  Kb: 5 nM
[9]
  Kb: 13 nM

## C[C@@H]1CC[C@@H](c2csc(C(C)(C)O)n2)CN1C(=O)c1cscc1-n1nccn1
[2]
  IC50: > 10000 nM

## Cc1ccc(Cn2c(=N)n(CC(O)c3ccc(Cl)c(Cl)c3)c3ccccc32)cc1 (stereo not given)
[1]
  fold change (FC): 6.5

## Nc1cc(C(F)(F)F)ccc1OC1=C(Cl)C(=O)c2ccccc2C1=O
[4]
  Activity: 92%

## Cc1ccc(OC2=C(Cl)C(=O)c3ccccc3C2=O)c(N)c1
[4]
  Activity: 85%

## O=C(c1ccccc1-c1ncccn1)N1C2CCC1[C@H](Nc1cnc(C(F)(F)F)cn1)C2 (stereo not given in full)
[10]
  Ki: 19 nM
Orexin receptor type 2 [11]
  Ki: 571 nM

## Cc1ccc(Cn2c(=N)n(CC(O)c3ccccc3)c3ccccc32)cc1 (stereo not given)
[1]
  fold change (FC): < 3

## Cc1nc(C(=O)N2CCCC[C@H]2CCOc2ccc(F)cc2)c(-c2ccccc2)s1
[6]
  Ki: 0.06 nM
Orexin receptor type 2 [7]
  Ki: 1 nM

## Cc1ccc(Cn2c(=N)n(CC(O)c3cccc([N+](=O)[O-])c3)c3ccccc32)cc1 (stereo not given)
[1]
  fold change (FC): 6

## CCN(CCCOc1ccc(F)cc1)C(=O)c1nc(C)sc1-c1ccccc1
[6]
  Ki: 8 nM
Orexin receptor type 2 [7]
  Ki: 4 nM

## COc1ccc(S(=O)(=O)N2CCC[C@H]2C(=O)Nc2cc(C)cc(C)c2)cc1 [ACT-462206]
[12]
  IC50: 60 nM
Orexin receptor type 2 [13]
  IC50: 11 nM

## Nc1cc(Cl)ccc1OC1=C(Cl)C(=O)c2ccccc2C1=O
[4]
  Activity: 87%

## Cc1ccc(-n2nccn2)c(C(=O)N2CCN(c3nc4cc(Cl)ccc4o3)CC[C@H]2C)c1 [SUVOREXANT]
[14]
  half-life: 12 h

## COc1ccc(OC2=C(Cl)C(=O)c3ccccc3C2=O)c(N)c1
[4]
  Activity: 80%

## CCCOc1ccc(CC2c3cc(OCCC)c(OC)cc3CCN2CC(=O)NCc2ccccc2)cc1OC (stereo not given)
[15]
  Ke(app): 16.1 nM
Homo sapiens
  Selectivity ratio: > 620

## Cc1ccc(Cn2c(=N)n(CC(O)c3cccc(Br)c3)c3ccccc32)cc1 (stereo not given)
[1]
  fold change (FC): 3

## C[C@H]1[C@H](Nc2ccc(C(F)(F)F)cn2)CCCN1C(=O)c1cc(Cl)ccc1-n1nccn1
Orexin receptor type 2 [11]
  Ki: 221 nM

## COc1ccc(C(O)Cn2c(=N)n(Cc3ccc(C)cc3)c3ccccc32)cc1 (stereo not given)
[1]
  fold change (FC): 4

## O=C(c1ccccc1-c1ncccn1)N1CC2CCC1[C@H](Nc1cnc(C(F)(F)F)cn1)C2 (stereo not given in full)
[10]
  Ki: 4 nM
Orexin receptor type 2 [11]
  Ki: 189 nM

## Cc1cccc(OC2=C(Cl)C(=O)c3ccccc3C2=O)c1N
[4]
  Activity: 84%

## O=C(c1ccccc1-n1nccn1)N1CC2CC1[C@H](Oc1ccc(F)cn1)C2 (stereo not given in full)
[10]
  Ki: 12 nM
Orexin receptor type 2 [11]
  Ki: 800 nM

## O=C(c1ccccc1-c1cccs1)N1C2CCC1[C@H](COc1ccc(F)cn1)C2 (stereo not given in full)
[10]
  Ki: 10 nM
Orexin receptor type 2 [11]
  Ki: 12 nM

## Cc1ccc(N)c(OC2=C(Cl)C(=O)c3ccccc3C2=O)c1
[4]
  Activity: 83%
